# Test results: US20230085307A1, “PYRIDAZINONE COMPOUND AND HERBICIDE” (NISSAN CHEMICAL CORPORATION, priority 2019, published 2023)
# Legend:
# late watergrass [1] = assay: Test Example 1: herbicidal activity, application before weed generation under submerged conditions (Table 16, symbol A); format: in vivo, late watergrass (Echinochloa oryzicola); details: amount of applied herbicide 320 g/ha
# Summary of the method: (§1)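 Alluvial soil was flooded to 4 cm depth, weed seeds were sown mixed and 2.5-leaf rice seedlings were transplanted. On sowing day, the compound's emulsion, diluted in water to a set dose, was applied to the water surface. Plants grew at 25–30 °C and were scored 0–5 after three weeks.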
# barnyard grass [2] = assay: Test Example 4: herbicidal effect by soil treatment (Table 19, symbol H); format: in vivo, barnyard grass (Echinochloa crus-galli); details: amount of applied herbicide 320 g/ha
# Summary of the method: (§2)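 Soil-surface application: an emulsion agent diluted with water to the predetermined dose is sprayed uniformly over seeds lying under roughly 1.5 cm of sterilized diluvial soil. Boxes stay in a greenhouse at 25° C. to 30° C. Three weeks later, each species is graded on previously defined criteria.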
# blackgrass [3] = assay: Test Example 4: herbicidal effect by soil treatment (Table 19, symbol J); format: in vivo, blackgrass (Alopecurus myosuroides); details: amount of applied herbicide 320 g/ha
# Summary of the method: as §2
# wild oat [4] = assay: Test Example 4: herbicidal effect by soil treatment (Table 19, symbol I); format: in vivo, wild oat (Avena fatua); details: amount of applied herbicide 320 g/ha
# Summary of the method: as §2
# Italian ryegrass [5] = assay: Test Example 4: herbicidal effect by soil treatment (Table 19, symbol K); format: in vivo, Italian ryegrass (Lolium multiflorum); details: amount of applied herbicide 320 g/ha
# Summary of the method: as §2
# late watergrass [6] = assay: Test Example 2: herbicidal activity, application during weed generation under submerged conditions (Table 17, symbol A); format: in vivo, late watergrass (Echinochloa oryzicola); details: AAH 320 g/ha; application during weed generation, submerged conditions
# Summary of the method: (§3)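 Mixed weed seedlings in alluvial soil under a 4 cm water layer, greenhouse-grown at 25–30° C. Compound given as a diluted emulsion into the floodwater at the 1–2 leaf stage; response graded after three weeks.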
# persian speedwell = assay: Test Example 4: herbicidal effect by soil treatment (Table 19, symbol R); format: in vivo, Persian speedwell (Veronica persica); details: amount of applied herbicide 320 g/ha
# Summary of the method: as §2
# Japanese bulrush [7] = assay: Test Example 1: herbicidal activity, application before weed generation under submerged conditions (Table 16, symbol B); format: in vivo, Japanese bulrush (Schoenoplectus juncoides); details: amount of applied herbicide 320 g/ha
# Summary of the method: as §1
# blackgrass [8] = assay: Test Example 5: herbicidal effect by foliage application, plastic box (Table 20, symbol J); format: in vivo, blackgrass (Alopecurus myosuroides); details: for J: blackgrass, herbicidal effect grade: three weeks after application
# Summary of the method: (§4)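 Sow seeds spot-wise in sterilized diluvial soil; cover with ~1.5 cm soil. Grow 14 days in greenhouse, 25° C. to 30° C. Spray foliage with emulsion diluted to predetermined amount. Rate effect after 3 weeks.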
# Italian ryegrass [9] = assay: Test Example 5: herbicidal effect by foliage application, plastic box (Table 20, symbol K); format: in vivo, Italian ryegrass (Lolium multiflorum); details: for K: Italian ryegrass, herbicidal effect grade / herbicidal effect on K: Italian ryegrass (evaluation grade 0-5): 320 g/ha; for K: Italian ryegrass, herbicidal effect grade: three weeks after application; for herbicidal effect on K: Italian ryegrass (evaluation grade 0-5): foliage application after 14-day growth
# Summary of the method: as §4
# green foxtail = assay: Test Example 4: herbicidal effect by soil treatment (Table 19, symbol G); format: in vivo, green foxtail (Setaria viridis); details: amount of applied herbicide 320 g/ha
# Summary of the method: as §2
# barnyard grass [10] = assay: Test Example 3: herbicidal effect by foliage application, Wagner pot (Table 18, symbol H); format: in vivo, barnyard grass (Echinochloa crus-galli); details: for herbicidal effect on barnyard grass (H): 320 g/ha
# Summary of the method: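 Plants were sown in alluvial soil held under 0.1–0.5 cm standing water and grown 14 days in a greenhouse at 25–30 °C. An emulsifiable formulation, water-diluted to the set dose, was then sprayed onto the foliage, and effects were scored three weeks later using previously defined criteria.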
# chickweed = assay: Test Example 4: herbicidal effect by soil treatment (Table 19, symbol P); format: in vivo, common chickweed (Stellaria media); details: amount of applied herbicide 320 g/ha
# Summary of the method: as §2
# redroot pigweed = assay: Test Example 5: herbicidal effect by foliage application, plastic box (Table 20, symbol N); format: in vivo, redroot pigweed (Amaranthus retroflexus); details: for N: redroot pigweed, herbicidal effect grade / herbicidal effect on N: redroot pigweed (evaluation grade 0-5): 320 g/ha; for N: redroot pigweed, herbicidal effect grade: three weeks after application; for herbicidal effect on N: redroot pigweed (evaluation grade 0-5): foliage application after 14-day growth
# Summary of the method: as §4
# Japanese bulrush [11] = assay: Test Example 2: herbicidal activity, application during weed generation under submerged conditions (Table 17, symbol B); format: in vivo, Japanese bulrush (Schoenoplectus juncoides); details: AAH 320 g/ha; application during weed generation, submerged conditions
# Summary of the method: as §3
# wild oat [12] = assay: Test Example 5: herbicidal effect by foliage application, plastic box (Table 20, symbol I); format: in vivo, wild oat (Avena fatua); details: for I: wild oat, herbicidal effect grade / herbicidal effect on I: wild oat (evaluation grade 0-5): 320 g/ha; for I: wild oat, herbicidal effect grade: three weeks after application; for herbicidal effect on I: wild oat (evaluation grade 0-5): foliage application after 14-day growth
# Summary of the method: as §4
# velvetleaf = assay: Test Example 5: herbicidal effect by foliage application, plastic box (Table 20, symbol M); format: in vivo, velvetleaf (Abutilon theophrasti); details: for M: velvetleaf, herbicidal effect grade / herbicidal effect on M: velvetleaf (evaluation grade 0-5): 320 g/ha; for M: velvetleaf, herbicidal effect grade: three weeks after application; for herbicidal effect on M: velvetleaf (evaluation grade 0-5): foliage application after 14-day growth
# Summary of the method: as §4
# [13] = evaluated three weeks after application
# [14] = foliage application, AAH 320 g/ha, evaluated three weeks after application
Structure (SMILES),"Herbicidal effect, A: late watergrass (late watergrass [1])","H: barnyard grass, herbicidal effect grade (barnyard grass [2])","J: blackgrass, herbicidal effect grade (blackgrass [3])","I: wild oat, herbicidal effect grade (wild oat [4])","K: Italian ryegrass, herbicidal effect grade (Italian ryegrass [5])","herbicidal effect rating, A: late watergrass (late watergrass [6])","R: persian speedwell, herbicidal effect grade (persian speedwell)","Herbicidal effect, B: Japanese bulrush (Japanese bulrush [7])","J: blackgrass, herbicidal effect grade (blackgrass [8]; foliage application, 320 g/ha)","K: Italian ryegrass, herbicidal effect grade (Italian ryegrass [9]; foliage application)",herbicidal effect on barnyard grass (H) (barnyard grass [10]),"P: chickweed, herbicidal effect grade (chickweed)","N: redroot pigweed, herbicidal effect grade (redroot pigweed; foliage application)","herbicidal effect rating, B: Japanese bulrush (Japanese bulrush [11])","I: wild oat, herbicidal effect grade (wild oat [12]; foliage application)","M: velvetleaf, herbicidal effect grade (velvetleaf; foliage application)","Herbicidal effect by soil treatment, H: barnyard grass (barnyard grass [2])","Herbicidal effect by soil treatment, J: blackgrass (blackgrass [3])","Herbicidal effect by soil treatment, I: wild oat (wild oat [4])","Herbicidal effect by soil treatment, K: Italian ryegrass (Italian ryegrass [5])",also measured
CCOc1ccc(-c2sc3cc(OC)ccc3c2-c2c(O)c(C)nn(C)c2=O)cc1 [3-072],1 (Herbicidal rate of 5% or more and less than 20%),0 (Herbicidal rate of 5% or less (almost no effect)),0 (Herbicidal rate of 5% or less (almost no effect)),0 (Herbicidal rate of 5% or less (almost no effect)),0 (Herbicidal rate of 5% or less (almost no effect)),3 (Herbicidal rate of 40% or more and less than 70%),5 (Herbicidal rate of 90% or more (almost completely withered)),5 (Herbicidal rate of 90% or more (almost completely withered)),0 (Herbicidal rate of 5% or less (almost no effect)),4 (Herbicidal rate of 70% or more and less than 90%),4 (Herbicidal rate of 70% or more and less than 90%),5 (Herbicidal rate of 90% or more (almost completely withered)),5 (Herbicidal rate of 90% or more (almost completely withered)),2 (Herbicidal rate of 20% or more and less than 40%),0 (Herbicidal rate of 5% or less (almost no effect)),3 (Herbicidal rate of 40% or more and less than 70%),–,–,–,–,"G: green foxtail, herbicidal effect grade (green foxtail): 0 (Herbicidal rate of 5% or less (almost no effect))"
Cc1nn(C)c(=O)c(-c2c(-c3ccc(Cl)c(F)c3)sc3c(F)cccc23)c1O [4-054],3 (Herbicidal rate of 40% or more and less than 70%),–,–,–,–,2 (Herbicidal rate of 20% or more and less than 40%),–,3 (Herbicidal rate of 40% or more and less than 70%),–,–,2 (Herbicidal rate of 20% or more and less than 40%),–,–,2 (Herbicidal rate of 20% or more and less than 40%),–,–,0 (Herbicidal rate of 5% or less (almost no effect)),0 (Herbicidal rate of 5% or less (almost no effect)),0 (Herbicidal rate of 5% or less (almost no effect)),0 (Herbicidal rate of 5% or less (almost no effect)),"Herbicidal effect by soil treatment, R: persian speedwell (persian speedwell): 4 (Herbicidal rate of 70% or more and less than 90%); herbicidal effect on J: blackgrass (evaluation grade 0-5) (blackgrass [8]; 320 g/ha, foliage application after 14-day growth, evaluated three weeks after application): 0 (Herbicidal rate of 5% or less (almost no effect)); herbicidal effect on K: Italian ryegrass (evaluation grade 0-5) (Italian ryegrass [9]; [13]): 1 (Herbicidal rate of 5% or more and less than 20%); Herbicidal effect by soil treatment, G: green foxtail (green foxtail): 0 (Herbicidal rate of 5% or less (almost no effect)); Herbicidal effect by soil treatment, P: chickweed (chickweed): 4 (Herbicidal rate of 70% or more and less than 90%); herbicidal effect on N: redroot pigweed (evaluation grade 0-5) (redroot pigweed; [13]): 5 (Herbicidal rate of 90% or more (almost completely withered)); herbicidal effect on I: wild oat (evaluation grade 0-5) (wild oat [12]; [13]): 0 (Herbicidal rate of 5% or less (almost no effect)); herbicidal effect on M: velvetleaf (evaluation grade 0-5) (velvetleaf; [13]): 5 (Herbicidal rate of 90% or more (almost completely withered))"
Cc1nn(C)c(=O)c(-c2c(-c3cnccc3C(F)(F)F)sc3ccc(F)cc23)c1O [2-387],3 (Herbicidal rate of 40% or more and less than 70%),–,–,–,–,4 (Herbicidal rate of 70% or more and less than 90%),–,3 (Herbicidal rate of 40% or more and less than 70%),–,–,–,–,–,4 (Herbicidal rate of 70% or more and less than 90%),–,–,–,–,–,–,"herbicidal effect, J: blackgrass (blackgrass [3]): 0 (Herbicidal rate of 5% or less (almost no effect)); herbicidal effect, I: wild oat (wild oat [4]): 1 (Herbicidal rate of 5% or more and less than 20%); herbicidal effect, K: Italian ryegrass (Italian ryegrass [5]): 4 (Herbicidal rate of 70% or more and less than 90%); herbicidal effect, R: persian speedwell (persian speedwell): 5 (Herbicidal rate of 90% or more (almost completely withered)); J: blackgrass, herbicidal effect (criteria 0-5) (blackgrass [8]; [14]): 4 (Herbicidal rate of 70% or more and less than 90%); K: Italian ryegrass, herbicidal effect (criteria 0-5) (Italian ryegrass [9]; [14]): 4 (Herbicidal rate of 70% or more and less than 90%); herbicidal effect, G: green foxtail (green foxtail): 3 (Herbicidal rate of 40% or more and less than 70%); herbicidal effect on H: barnyard grass (barnyard grass [10]; amount of applied herbicide 320 g/ha): 5 (Herbicidal rate of 90% or more (almost completely withered)); herbicidal effect, P: chickweed (chickweed): 4 (Herbicidal rate of 70% or more and less than 90%); N: redroot pigweed, herbicidal effect (criteria 0-5) (redroot pigweed; [14]): 5 (Herbicidal rate of 90% or more (almost completely withered)); I: wild oat, herbicidal effect (criteria 0-5) (wild oat [12]; [14]): 4 (Herbicidal rate of 70% or more and less than 90%); M: velvetleaf, herbicidal effect (criteria 0-5) (velvetleaf; [14]): 5 (Herbicidal rate of 90% or more (almost completely withered))"
CCCC(=O)Oc1c(C)nn(C)c(=O)c1-c1c(-c2ccc(C#N)cc2)sc2c(F)cccc12 [4-053],5 (Herbicidal rate of 90% or more (almost completely withered)),–,–,–,–,4 (Herbicidal rate of 70% or more and less than 90%),–,3 (Herbicidal rate of 40% or more and less than 70%),–,–,4 (Herbicidal rate of 70% or more and less than 90%),–,–,2 (Herbicidal rate of 20% or more and less than 40%),–,–,0 (Herbicidal rate of 5% or less (almost no effect)),0 (Herbicidal rate of 5% or less (almost no effect)),0 (Herbicidal rate of 5% or less (almost no effect)),4 (Herbicidal rate of 70% or more and less than 90%),"Herbicidal effect by soil treatment, R: persian speedwell (persian speedwell): 5 (Herbicidal rate of 90% or more (almost completely withered)); herbicidal effect on K: Italian ryegrass (evaluation grade 0-5) (Italian ryegrass [9]; [13]): 4 (Herbicidal rate of 70% or more and less than 90%); Herbicidal effect by soil treatment, G: green foxtail (green foxtail): 2 (Herbicidal rate of 20% or more and less than 40%); Herbicidal effect by soil treatment, P: chickweed (chickweed): 4 (Herbicidal rate of 70% or more and less than 90%); herbicidal effect on N: redroot pigweed (evaluation grade 0-5) (redroot pigweed; [13]): 5 (Herbicidal rate of 90% or more (almost completely withered)); herbicidal effect on I: wild oat (evaluation grade 0-5) (wild oat [12]; [13]): 2 (Herbicidal rate of 20% or more and less than 40%); herbicidal effect on M: velvetleaf (evaluation grade 0-5) (velvetleaf; [13]): 5 (Herbicidal rate of 90% or more (almost completely withered))"
CCCC(=O)Oc1c(C)nn(C)c(=O)c1-c1c(-c2ccccc2)sc2cc(OC)ccc12 [3-062],3 (Herbicidal rate of 40% or more and less than 70%),0 (Herbicidal rate of 5% or less (almost no effect)),0 (Herbicidal rate of 5% or less (almost no effect)),0 (Herbicidal rate of 5% or less (almost no effect)),0 (Herbicidal rate of 5% or less (almost no effect)),0 (Herbicidal rate of 5% or less (almost no effect)),4 (Herbicidal rate of 70% or more and less than 90%),4 (Herbicidal rate of 70% or more and less than 90%),0 (Herbicidal rate of 5% or less (almost no effect)),2 (Herbicidal rate of 20% or more and less than 40%),2 (Herbicidal rate of 20% or more and less than 40%),4 (Herbicidal rate of 70% or more and less than 90%),2 (Herbicidal rate of 20% or more and less than 40%),3 (Herbicidal rate of 40% or more and less than 70%),2 (Herbicidal rate of 20% or more and less than 40%),3 (Herbicidal rate of 40% or more and less than 70%),–,–,–,–,–
